{
  "source": "paper PMC4764201",
  "about": "“High Throughput Screen for Escherichia coli Twin Arginine Translocation (Tat) Inhibitors” (PLoS ONE, 2016)",
  "data": [
    {"tested_on": "Pseudomonas aeruginosa Tat machinery", "assay": "not given", "design": "method as in PMID 23006747", "conditions": "cited from earlier work", "values": [
      {"smiles": "O=C1C=CC(=O)N1c1ccccc1", "note": "[N-phenylmaleimide]", "activity on the Pseudomonas aeruginosa Tat machinery": "identified as inhibitors"},
      {"smiles": "Cc1ccc(S(=O)(=O)/C=C/C#N)cc1", "note": "[Bay 11–7082]", "activity on the Pseudomonas aeruginosa Tat machinery": "identified as inhibitors"}
    ]},
    {"tested_on": "Escherichia coli Tat pathway", "assay": "Live cell assay: total mCherry fluorescence of cells producing spTorA-mCherry-SsrA (primary HTS assay)", "assay_type": "cell-based", "conditions": "Escherichia coli, read-out: IC50 (Live Cell Assay)", "description": "(§1) Having obtained the calibration and validation data described in the previous sections, we next established the protocol for the HTS. Details are provided in the Materials and Methods section. Here, we briefly summarize the assay. A single colony of E. coli strain MC4100(DE3) containing plasmids encoding TatABC and spTorA-mCherry-SsrA was inoculated into LB and grown overnight. The next morning, cells were transferred to fresh media, the production of TatABC and spTorA-mCherry-SsrA was induced, and cultures were aliquoted onto plates with test compounds. NaSCN was included in control wells to simulate a hit. Cells were grown for 8 h, followed by incubation at 4°C overnight, and then read the next day. Setting the total cellular fluorescence obtained with spTorA-mCherry-H6 under Tat^++ conditions to 100%, spTorA-mCherry-SsrA yielded a total cellular fluorescence signal of 63±14%, consistent with SsrA-induced degradation of the mCherry protein. The total cellular fluorescence was further reduced to 36±14% in the presence of 30 mM NaSCN (simulated hit), and to 41±6% in the absence of TatABC, verifying the Δψ- and Tat-dependence of the fluorescence signal (Fig 4D).\n(§2) A single colony of E. coli strain MC4100(DE3) (pTatABC-DUET1, pTorA-mCherry-SsrA) was inoculated into a 100 mL LB culture supplemented with Ap and Cm and grown at 37°C with shaking (250 rpm) overnight. Cells were harvested by centrifugation at 4,000g for 10 min at room temperature (RT), suspended in 10 mL fresh LB broth supplemented with Ap and Cm, and the optical density (A500) was determined. Simultaneously, 700 mL LB supplemented with 100 mM arabinose, 2 mM IPTG, 100 μg/mL Ap and 68 μg/mL Cm was filter-sterilized (0.22 μm), and then divided into 200 mL (A) and 500 mL (B) portions. Sterile NaSCN (30 mM final; 1.5 mL of 4 M NaSCN) was added to portion A, and an equal ratio of sterile water was added to portion B (3.75 mL). Media and cells were transferred to the HTS facility on ice.\n(§3) A CyBi-Well vario pipetting workstation (CyBio, Jena, Germany) was used to dispense library compounds and cultures. Library compounds (1 μL) solubilized in DMSO were added to 384-well black, clear-bottomed plates (Greiner Bio-one, Germany) in columns 3 to 22 (320 wells/plate). For controls, DMSO (1 μL) was added to each well in columns 1, 2, […], to achieve DMSO uniformity across the plate. Both portions of LB media were inoculated with E. coli MC4100(DE3) (pTatABC-DUET1, pTorA-mCherry-SsrA) from the concentrated stock to a final A500 = 0.15. The media with 30 mM NaSCN (positive control, or simulated hit) was dispensed into each well of columns 1 and 24 (49 μL each). An equivalent volume of media without NaSCN was dispensed into each well of columns 2 to 23. Columns 2 and 23 lacked NaSCN and test compounds and served as negative controls. The first 12,800 compounds were screened at 5 μM (plates 1–40), and the remaining 38,800 compounds were screened at 20 μM (plates 41–162).\n(§4) The plates containing cells and dispersed test compounds were grown with shaking (200 rpm) at 25°C for 8 h. Plates were individually mounted, not stacked, on a hollow plastic platform, allowing adequate air circulation. Following the 8 h incubation, plates were transferred to 4°C for 16 h. Each plate was covered with an empty plate to prevent condensation on the lid. […] Following the incubation, plates were read using a BMG Polarstar Omega plate reader (BMG Labtech, Ortenberg, Germany) to determine optical densities (A500) and mCherry fluorescence intensities (EX = 584 nm, EM = 620 nm).\n(§5) Supplementary file pone.0149659.s003.tiff: S3 Fig IC50's for Hit Compound 181^JS. (A) The total cellular mCherry fluorescence (live cell assay; n = 1), (B) the in vitro NADH-dependent Tat transport efficiency of pre-SufI (n = 1), and (C) the maximum transmembrane electrical potential gradient (n = 1) were measured for a range of concentrations of compound 181^JS (S2E Fig). (D) SDS-PAGE gel showing in-gel fluorescence data used in (B). […]", "units": {"IC50": "µM"}, "values": [
      {"smiles": "O=[N+]([O-])c1ccc(O)c(-c2cccs2)c1", "note": "[Compound 202, 4-nitro-2-thiophen-2-ylphenol]", "IC50": 5},
      {"smiles": "O=[N+]([O-])c1cc([N+](=O)[O-])c2ccccc2c1Cl", "note": "[Compound 51, 1-chloro-2,4-dinitronaphthalene]", "IC50": 20},
      {"smiles": "Oc1cc(Cl)ccc1Oc1ccc(Cl)cc1Cl", "note": "[Compound 18^NIH, 5-Chloro-2-(2,4-dichlorophenoxy)phenol]", "IC50": 2},
      {"smiles": "N#CC(C#N)=NNc1ccccc1Br", "note": "[Compound 1, [(2-bromophenyl)hydrazono]malononitrile]", "IC50": 6},
      {"smiles": "O=C(Nc1cccc(C(F)(F)F)c1)Nc1ncc([N+](=O)[O-])s1", "note": "[Compound 181^JS, 1-(5-nitro-1,3-thiazol-2-yl)-3-[3-(trifluoromethyl)phenyl]urea]", "IC50": 20},
      {"smiles": "FC(F)(F)c1cccc(-c2cccc3cnccc23)c1", "note": "[Compound 140, 5-[3-(trifluoromethyl)phenyl]isoquinoline]", "IC50": 14}
    ]},
    {"tested_on": "Escherichia coli Tat pathway", "assay": "Live cell assay: total mCherry fluorescence of cells producing spTorA-mCherry-SsrA (primary HTS assay)", "assay_type": "cell-based", "conditions": "Tat++ conditions; appears to be a consequence of growth inhibition", "description": "as §1, §2, §3, §4, §5", "values": [
      {"smiles": "O=C1C=CC(=O)N1c1ccccc1", "note": "[N-phenylmaleimide]", "effect on synthesis of spTorA-mCherry-SsrA": "inhibited synthesis"},
      {"smiles": "Cc1ccc(S(=O)(=O)/C=C/C#N)cc1", "note": "[Bay 11–7082]", "effect on synthesis of spTorA-mCherry-SsrA": "inhibited synthesis"}
    ]},
    {"tested_on": "Escherichia coli Tat pathway", "assay": "Live cell assay: total mCherry fluorescence of cells producing spTorA-mCherry-SsrA (primary HTS assay)", "assay_type": "cell-based", "conditions": "mCherry fluorescence intensity during in vivo cell growth, Tat++ conditions, 384-well plate; read-out: IC50 (Live Cell Assay)", "description": "as §1, §2, §3, §4, §5", "units": {"IC50": "µM"}, "values": [
      {"smiles": "N#CC1c2ccccc2-n2nncc2CN1Cc1cc(Cl)cc(Cl)c1", "note": "(stereo not drawn) [21^NIH, 5-[(3,5-dichlorophenyl)methyl]-4,6-dihydrotriazolo[1,5-a][1, 4]benzodiazepine-6-carbonitrile]", "IC50": 13},
      {"smiles": "Fc1nc(F)c(F)c(NNC(=S)Nc2cccc(C(F)(F)F)c2)c1F", "note": "[Compound 111, 1-[(2,3,5,6-tetrafluoropyridin-4-yl)amino]-3-[(3-trifluoromethyl)phenyl]thiourea]", "IC50": 31}
    ]}
  ]
}
